In ChEMBL document CHEMBL1201862, “PubChem BioAssay data set” (2004):
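Briefly, cells in 96-well plates were exposed to five compound concentrations for 48 h, and endpoints were estimated by linear interpolation. GI50 marks 50% less growth.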 Calls of active or inactive are those of the source. Cut-off read from the data, not from the text of the source: active = GI50 up to about 1.1 µM and inactive = higher. Where a SMILES comes first, the peptide text is derived from it. [ ]: non-standard residue; d: D form. The star is where a group is joined. ξ: configuration not given here. X4 = COc1ccc(C(N*)c2ccc(OC)cc2)cc1; NMeF = CN[C@@H](Cc1ccccc1)C(=O)O; NMeD = CN[C@@H](CC(=O)O)C(=O)O; NMeV = CN[C@H](C(=O)O)C(C)C; ξNMeV = CNC(C(=O)O)C(C)C; Boc = CC(C)(C)OC(=O)*; ξNMeA = CNC(C)C(=O)O; ξV = CC(C)C(N)C(=O)O

Columns and labels:
Experiment in all cases: inhibition of tumour cell growth, NCI panel, 48 h
786-0 = system: 786-0
HCT-116 = system: HCT-116
HL-60 = system: HL-60
HOP-62 = system: HOP-62
HT-29 = system: HT-29
K562 = system: K562
LOX IMVI = system: LOX IMVI
M14 = system: M14
MCF7 = system: MCF7
MDA-N = system: MDA-N
OVCAR-3 = system: OVCAR-3
OVCAR-4 = system: OVCAR-4
OVCAR-5 = system: OVCAR-5
OVCAR-8 = system: OVCAR-8
SK-MEL-2 = system: SK-MEL-2
SK-OV-3 = system: SK-OV-3
SNB-75 = system: SNB-75
SW-620 = system: SW-620
UACC-62 = system: UACC-62
UO-31 = system: UO-31

Compound	GI50 (786-0)	GI50 (HCT-116)	GI50 (HL-60)	GI50 (HOP-62)	GI50 (HT-29)	GI50 (K562)	GI50 (LOX IMVI)	GI50 (M14)	GI50 (MCF7)	GI50 (MDA-N)	GI50 (OVCAR-3)	GI50 (OVCAR-4)	GI50 (OVCAR-5)	GI50 (OVCAR-8)	GI50 (SK-MEL-2)	GI50 (SK-OV-3)	GI50 (SNB-75)	GI50 (SW-620)	GI50 (UACC-62)	GI50 (UO-31)
NC(=O)C(c1ccccc1)N1OC2C(=O)N(c3cccc4ccccc34)C(=O)C2C1c1c2ccccc2c(Cl)c2ccccc12 (stereo not given)	10.2 µM (inactive)	1.23 µM (inactive)	2.44 µM (inactive)	11 µM (inactive)	7.53 µM (inactive)	8.15 µM (inactive)	6.1 µM (inactive)	7.03 µM (inactive)	2.85 µM (inactive)	2.38 µM (inactive)	7.91 µM (inactive)	9.93 µM (inactive)	9.66 µM (inactive)	9.29 µM (inactive)	8.69 µM (inactive)	19 µM (inactive)	8.97 µM (inactive)	3.15 µM (inactive)	6.93 µM (inactive)	12 µM (inactive)
O=C1NC(=O)C(c2c[nH]c3cc(Br)ccc23)=C1c1cn(C(c2ccccc2)(c2ccccc2)c2ccccc2)cn1	8.85 µM (inactive)	10.5 µM (inactive)	13.7 µM (inactive)	24.7 µM (inactive)	9.48 µM (inactive)	6.3 µM (inactive)	15.1 µM (inactive)	13.2 µM (inactive)	10.8 µM (inactive)	10.1 µM (inactive)	29.7 µM (inactive)	26.5 µM (inactive)	17.5 µM (inactive)	14.6 µM (inactive)	11.2 µM (inactive)	28.6 µM (inactive)	11.5 µM (inactive)	15.7 µM (inactive)	18.2 µM (inactive)	14.8 µM (inactive)
CC(N)(Cc1c[nH]c2ccccc12)C(=O)O (stereo not given)	> 100 µM (inactive)	> 100 µM (inactive)	> 100 µM (inactive)	> 100 µM (inactive)	> 100 µM (inactive)	> 100 µM (inactive)	> 100 µM (inactive)	> 100 µM (inactive)	> 100 µM (inactive)	> 100 µM (inactive)	> 100 µM (inactive)	> 100 µM (inactive)	> 100 µM (inactive)	> 100 µM (inactive)	> 100 µM (inactive)	> 100 µM (inactive)	> 100 µM (inactive)	> 100 µM (inactive)	> 100 µM (inactive)	> 100 µM (inactive)
COc1ccc(C(NC(=O)C[C@@H](C(=O)N(C)C(C)C(=O)O)N(C)C(=O)[C@@H]2CCCN2C(=O)[C@H](C(C)C)N(C)C(=O)C(C(C)C)N(C)C(=O)[C@H](Cc2ccccc2)N(C)C(=O)C(NC(=O)OC(C)(C)C)C(C)C)c2ccc(OC)cc2)cc1 (stereo not given in full) (Boc-[ξV][NMeF][ξNMeV][NMeV]P[NMeD](X4)[ξNMeA]-OH)	21.3 µM (inactive)	13.1 µM (inactive)	8 µM (inactive)	13.4 µM (inactive)	16.2 µM (inactive)	11 µM (inactive)	7.66 µM (inactive)	11.8 µM (inactive)	16.1 µM (inactive)	12.5 µM (inactive)	13.3 µM (inactive)	17.5 µM (inactive)	> 37.5 µM (inactive)	22.1 µM (inactive)	7.74 µM (inactive)	> 37.5 µM (inactive)	4.24 µM (inactive)	8.18 µM (inactive)	6.73 µM (inactive)	24.8 µM (inactive)
CC1CCC2C(C)C(=O)OC2C2(C)C(=O)C=CC12 (stereo not given)	> 10 µM (inactive)	7.76 µM (inactive)	6.82 µM (inactive)	> 10 µM (inactive)	> 10 µM (inactive)	4.57 µM (inactive)	8.69 µM (inactive)	> 10 µM (inactive)	8.79 µM (inactive)	6.14 µM (inactive)	> 10 µM (inactive)	> 10 µM (inactive)	> 10 µM (inactive)	> 10 µM (inactive)	9.4 µM (inactive)	> 10 µM (inactive)	> 10 µM (inactive)	> 10 µM (inactive)	> 10 µM (inactive)	> 10 µM (inactive)
CCOC(=O)/C(C(N)=O)=C(O)/C(O)=C(\Br)C(=O)c1ccccc1	15.8 µM (inactive)	16.4 µM (inactive)	0.0622 µM (active)	20.5 µM (inactive)	25.9 µM (inactive)	11.8 µM (inactive)	15.6 µM (inactive)	14.6 µM (inactive)	17.7 µM (inactive)	17.5 µM (inactive)	20.7 µM (inactive)	22 µM (inactive)	19.4 µM (inactive)	19.6 µM (inactive)	18.9 µM (inactive)	26.2 µM (inactive)	17.3 µM (inactive)	9.66 µM (inactive)	17.8 µM (inactive)	18.9 µM (inactive)
CSC(=N/C=C/c1ccccc1)SC	> 100 µM (inactive)	> 100 µM (inactive)	49.9 µM (inactive)	> 100 µM (inactive)	> 100 µM (inactive)	72.8 µM (inactive)	50.5 µM (inactive)	> 100 µM (inactive)	> 100 µM (inactive)	55.6 µM (inactive)	51.4 µM (inactive)	> 100 µM (inactive)	> 100 µM (inactive)	> 100 µM (inactive)	> 100 µM (inactive)	> 100 µM (inactive)	> 100 µM (inactive)	> 100 µM (inactive)	> 100 µM (inactive)	> 100 µM (inactive)
CCOc1cc(C2SCC(=O)N2c2nc3cc4sc(N5C(=O)CSC5c5ccc(O)c(OCC)c5)nc4cc3s2)ccc1O (stereo not given)	31.6 µM (inactive)	20.9 µM (inactive)	61.2 µM (inactive)	> 100 µM (inactive)	18.4 µM (inactive)	> 64.6 µM (inactive)	38.3 µM (inactive)	> 100 µM (inactive)	9.86 µM (inactive)	30.5 µM (inactive)	> 100 µM (inactive)	48.4 µM (inactive)	> 100 µM (inactive)	> 68.7 µM (inactive)	> 100 µM (inactive)	> 100 µM (inactive)	> 100 µM (inactive)	27.1 µM (inactive)	98.6 µM (inactive)	21.4 µM (inactive)
Cc1ccc2occ/c(=N\Nc3ccccc3)c2c1	21.2 µM (inactive)	47.2 µM (inactive)	> 100 µM (inactive)	32.6 µM (inactive)	23.9 µM (inactive)	25.2 µM (inactive)	66.2 µM (inactive)	43 µM (inactive)	40.2 µM (inactive)	65.9 µM (inactive)	60.1 µM (inactive)	13.2 µM (inactive)	59.4 µM (inactive)	72.9 µM (inactive)	> 100 µM (inactive)	59.6 µM (inactive)	24.3 µM (inactive)	> 100 µM (inactive)	> 100 µM (inactive)	70.8 µM (inactive)
CCCCCCCCCCCCCCCC(=O)OCC1OC(OC)C(NC(=O)N(CCCl)N=O)C(O)C1O (stereo not given)	2.01 µM (inactive)	13 µM (inactive)	4.57 µM (inactive)	8.04 µM (inactive)	14.5 µM (inactive)	10.7 µM (inactive)	2.36 µM (inactive)	16.8 µM (inactive)	45.4 µM (inactive)	15.1 µM (inactive)	19.6 µM (inactive)	20 µM (inactive)	35 µM (inactive)	15.5 µM (inactive)	17.7 µM (inactive)	21.8 µM (inactive)	7 µM (inactive)	9.48 µM (inactive)	2.02 µM (inactive)	24 µM (inactive)
CCOC(=O)n1ccc2c(C(=O)OC)c(C(=O)OC)cc(/C(=C/C(=O)OC)C(=O)OC)c21	> 100 µM (inactive)	89.3 µM (inactive)	> 100 µM (inactive)	> 100 µM (inactive)	> 100 µM (inactive)	26.5 µM (inactive)	> 100 µM (inactive)	> 100 µM (inactive)	> 100 µM (inactive)	83.6 µM (inactive)	> 100 µM (inactive)	> 100 µM (inactive)	> 100 µM (inactive)	> 100 µM (inactive)	> 100 µM (inactive)	> 100 µM (inactive)	> 100 µM (inactive)	> 100 µM (inactive)	82.2 µM (inactive)	92.5 µM (inactive)
O=C1/C(=C/c2cccc(Oc3ccccc3)c2)N=C(c2ccccc2)N1c1nc2ccc(Sc3ccccc3)cc2[nH]1	32.3 µM (inactive)	30.2 µM (inactive)	20.4 µM (inactive)	28.4 µM (inactive)	23.5 µM (inactive)	23.7 µM (inactive)	30.9 µM (inactive)	24.3 µM (inactive)	27.7 µM (inactive)	16 µM (inactive)	15.8 µM (inactive)	47.3 µM (inactive)	57.8 µM (inactive)	29.9 µM (inactive)	17.3 µM (inactive)	25.6 µM (inactive)	18.2 µM (inactive)	29.4 µM (inactive)	23.2 µM (inactive)	50.1 µM (inactive)
CC(C)/C(Cl)=N/OC(=O)Nc1ccc(OC(F)(F)F)cc1	6.81 µM (inactive)	6.65 µM (inactive)	1.97 µM (inactive)	17.7 µM (inactive)	18.6 µM (inactive)	1.76 µM (inactive)	2.1 µM (inactive)	3.78 µM (inactive)	13.5 µM (inactive)	13.4 µM (inactive)	17.9 µM (inactive)	4.19 µM (inactive)	15.6 µM (inactive)	18.1 µM (inactive)	14.2 µM (inactive)	17.6 µM (inactive)	15.6 µM (inactive)	1.77 µM (inactive)	16.3 µM (inactive)	10.8 µM (inactive)
